# Calls of active or inactive are those of the source. No cut-off for these calls is given here.
# Key:
# RAW264.7 [1] = assay: Inhibition of LPS-induced TNFalpha production in mouse RAW264.7 cells at 50 uM preincubated for 2 hrs followed by LPS treatment for 24 hrs by RT-qPCR analysis relative to control; format: functional; conditions: time 26 hrs
# RAW264.7 [2] = assay: Inhibition of LPS-induced TNFalpha production in mouse RAW264.7 cells preincubated for 2 hrs followed by LPS treatment for 24 hrs by RT-qPCR analysis; format: functional, cell-based
# Peritoneal macrophage = assay: Inhibition of LPS-induced TNFalpha production in mouse peritoneal macrophage at 2.6 uM incubated overnight by immunoassay relative to control; format: functional
# Mus musculus [3] = assay: Anti-ulcerative colitis activity in IL-10-/- C57BL/6 mouse model of ulcerative colitis assessed as histopathological score recovery ratio at 50 mg/kg, IG via gavage for 8 weeks relative to control; format: functional
# Mus musculus [4] = assay: Antiinflammatory activity against DSS-induced C57BL/6 mouse model of acute ulcerative colitis assessed as inhibition of IL-23 mRNA expression in colon tissue administered intragastrically via gavage measured after 7 days by RT-qPCR analysis; format: functional, organism-based; conditions: route ig, time 7.0 day, DDE = dose-dependent effect
# Mus musculus [5] = assay: Anti-ulcerative colitis activity in DSS-induced C57BL/6 mouse ulcerative colitis model assessed as colon length recovery ratio at 50 mg/kg, IG via gavage measured after 7 days relative to control; format: functional; conditions: time 7 day
# Mus musculus [6] = assay: Antiinflammatory activity against DSS-induced C57BL/6 mouse model of acute ulcerative colitis assessed as inhibition ratio of IL-23 protein expression at 50 mg/kg, IG via gavage measured after 7 days by ELISA relative to control; format: functional; set-up: scale not given: the % may be the effect or the level left; conditions: time 7 day
# Mus musculus [7] = assay: Antiinflammatory activity against IL-10-/- C57BL/6 mouse model of ulcerative colitis assessed as inhibition ratio of TNF-alpha mRNA expression in colon tissue at 50 mg/kg, IG via gavage and measured after 8 weeks by RT-qPCR analysis relative to control; format: functional; set-up: scale not given: the % may be the effect or the level left
# Mus musculus [8] = assay: Antiinflammatory activity against DSS-induced C57BL/6 mouse model of acute ulcerative colitis assessed as inhibition ratio of IL-6 mRNA expression in colon tissue at 50 mg/kg, IG via gavage measured after 7 days by RT-qPCR analysis relative to control; format: functional; set-up: scale not given: the % may be the effect or the level left; conditions: time 7 day
# Mus musculus [9] = assay: Anti-ulcerative colitis activity against DSS-induced ulcerative colitis C57BL/6 mouse model assessed as body weight recovery rate at 50 mg/kg, IG via gavage administered for 7 days and measured everyday relative to control; format: functional; conditions: time 7 day
# Mus musculus [10] = assay: Anti-ulcerative colitis activity against DSS-induced ulcerative colitis C57BL/6 mouse model assessed as reduction in DAI recovery score ratio at 50 mg/kg, IG via gavage administered for 7 days and measured everyday relative to control; format: functional; set-up: scale not given: the % may be the effect or the level left; conditions: time 7 day
# Mus musculus [11] = assay: Antiinflammatory activity against IL-10-/- C57BL/6 mouse model of ulcerative colitis assessed as inhibition ratio of IL-1beta mRNA expression in colon tissue at 50 mg/kg, IG via gavage and measured after 8 weeks by RT-qPCR analysis relative to control; format: functional; set-up: scale not given: the % may be the effect or the level left
# Mus musculus [12] = assay: Antiinflammatory activity against DSS-induced C57BL/6 mouse model of acute ulcerative colitis assessed as inhibition ratio of TNF-alpha protein expression at 50 mg/kg, IG via gavage measured after 7 days by ELISA relative to control; format: functional; set-up: scale not given: the % may be the effect or the level left; conditions: time 7 day
# Mus musculus [13] = assay: Anti-ulcerative colitis activity in DSS-induced C57BL/6 mouse ulcerative colitis model assessed as histopathological score recovery ratio at 50 mg/kg, IG via gavage measured after 7 days by H and E staining method relative to control; format: functional; conditions: time 7 day
# Mus musculus [14] = assay: Anti-ulcerative colitis activity against DSS-induced ulcerative colitis C57BL/6 mouse model assessed as reduction in DAI score at 50 mg/kg, IG via gavage administered for 7 days and measured everyday (reference value: 4.0); format: functional; conditions: time 7 day
# Mus musculus [15] = assay: Antiinflammatory activity against IL-10-/- C57BL/6 mouse model of ulcerative colitis assessed as inhibition ratio of IL-23 mRNA expression in colon tissue at 50 mg/kg, IG via gavage and measured after 8 weeks by RT-qPCR analysis relative to control; format: functional; set-up: scale not given: the % may be the effect or the level left
# Mus musculus [16] = assay: Antiinflammatory activity against IL-10-/- C57BL/6 mouse model of ulcerative colitis assessed as inhibition ratio of IL-6 mRNA expression in colon tissue at 50 mg/kg, IG via gavage and measured after 8 weeks by RT-qPCR analysis relative to control; format: functional; set-up: scale not given: the % may be the effect or the level left
# Mus musculus [17] = assay: Antiinflammatory activity against IL-10-/- C57BL/6 mouse model of ulcerative colitis assessed as inhibition ratio of IL-1beta protein expression at 50 mg/kg, IG via gavage and measured after 8 weeks by ELISA relative to control; format: functional; set-up: scale not given: the % may be the effect or the level left
# Mus musculus [18] = assay: Antiinflammatory activity against IL-10-/- C57BL/6 mouse model of ulcerative colitis assessed as inhibition ratio of TNF-alpha protein expression at 50 mg/kg, IG via gavage and measured after 8 weeks by ELISA relative to control; format: functional; set-up: scale not given: the % may be the effect or the level left
# Mus musculus [19] = assay: Antiinflammatory activity against IL-10-/- C57BL/6 mouse model of ulcerative colitis assessed as inhibition ratio of IL-23 protein expression at 50 mg/kg, IG via gavage and measured after 8 weeks by ELISA relative to control; format: functional; set-up: scale not given: the % may be the effect or the level left
# Mus musculus [20] = assay: Antiinflammatory activity against IL-10-/- C57BL/6 mouse model of ulcerative colitis assessed as inhibition ratio of IL-6 protein expression at 50 mg/kg, IG via gavage and measured after 8 weeks by ELISA relative to control; format: functional; set-up: scale not given: the % may be the effect or the level left
# Mus musculus [21] = assay: Antiinflammatory activity against DSS-induced C57BL/6 mouse model of acute ulcerative colitis assessed as inhibition ratio of IL-1beta protein expression at 50 mg/kg, IG via gavage measured after 7 days by ELISA relative to control; format: functional; set-up: scale not given: the % may be the effect or the level left; conditions: time 7 day
# Mus musculus [22] = assay: Antiinflammatory activity against DSS-induced C57BL/6 mouse model of acute ulcerative colitis assessed as inhibition ratio of IL-6 protein expression at 50 mg/kg, IG via gavage measured after 7 days by ELISA relative to control; format: functional; set-up: scale not given: the % may be the effect or the level left; conditions: time 7 day
# Mus musculus [23] = assay: Antiinflammatory activity against DSS-induced C57BL/6 mouse model of acute ulcerative colitis assessed as inhibition ratio of TNF-alpha mRNA expression in colon tissue at 50 mg/kg, IG via gavage measured after 7 days by RT-qPCR analysis relative to control; format: functional; set-up: scale not given: the % may be the effect or the level left; conditions: time 7 day
# Mus musculus [24] = assay: Anti-ulcerative colitis activity in IL-10-/- C57BL/6 mouse ulcerative colitis model assessed as animal survival at 50 mg/kg, IG via gavage for 8 weeks; format: functional, organism-based
# Mus musculus [25] = assay: Anti-ulcerative colitis activity in IL-10-/- C57BL/6 mouse model of ulcerative colitis assessed as colon length recovery ratio at 50 mg/kg, IG via gavage for 8 weeks relative to control; format: functional
structure (smiles),measurement,setting,value
COc1cc(OC)c2c(c1)C(=O)CC2c1cccs1 (stereo not given),inhibition at 50 µM,RAW264.7 [1],5.6%
COc1cc(OC)c2c(c1)C(=O)CC2c1ccc(Cl)cc1 (stereo not given),inhibition at 50 µM,RAW264.7 [1],-98.9%
COc1ccc(C2CC(=O)c3cc(OC)cc(OC)c32)cc1 (stereo not given),inhibition at 50 µM,RAW264.7 [1],82.6%
same,IC50,RAW264.7 [2],1.26 µM
COc1cc(OC)c2c(c1)C(=O)CC2c1ccccc1C (stereo not given),inhibition at 50 µM,RAW264.7 [1],77.6%
same,IC50,RAW264.7 [2],4 µM
COc1ccc2c(c1)C(=O)CC2c1ccc(F)cc1 (stereo not given),inhibition at 50 µM,RAW264.7 [1],6.5%
COc1cc(OC)c2c(c1)C(=O)CC2c1ccc(F)cc1 (stereo not given),inhibition at 50 µM,RAW264.7 [1],-4.2%
COc1cc(C2CC(=O)c3cc(OC)c(OC)c(OC)c32)cc(OC)c1OC (stereo not given),inhibition at 2.6 µM,Peritoneal macrophage,55%
COc1cc2c(cc1OC)C(c1ccc(C)cc1)CC2=O (stereo not given),inhibition at 50 µM,RAW264.7 [1],55.2%
same,IC50,RAW264.7 [2],47.3 µM
Cc1ccc(C2CC(=O)c3cc4c(cc32)OCO4)cc1 (stereo not given),inhibition at 50 µM,RAW264.7 [1],66.2%
same,IC50,RAW264.7 [2],43.6 µM
COc1cc(OC)c2c(c1)C(=O)CC2c1ccc2c(c1)OCO2 (stereo not given),inhibition at 50 µM,RAW264.7 [1],15.5%
O=C1CC(c2ccc(F)cc2)c2cc3c(cc21)OCO3 (stereo not given),inhibition at 50 µM,RAW264.7 [1],5.3%
COc1ccc(C2c3c(OC)cc(OC)cc3C(=O)C2c2cc(OC)cc(OC)c2)cc1 (stereo not given),inhibition at 50 µM,RAW264.7 [1],62.3%
same,IC50,RAW264.7 [2],46 µM
COc1cc(OC)c2c(c1)C(=O)CC2c1ccc(SC)cc1 (stereo not given),inhibition at 50 µM,RAW264.7 [1],79.8%
same,IC50,RAW264.7 [2],3.92 µM
COc1cc2c(cc1OC)C(c1ccc(F)cc1)CC2=O (stereo not given),inhibition at 50 µM,RAW264.7 [1],80%
COc1cc(OC)cc(C2CC(=O)c3cc(OC)ccc32)c1 (stereo not given),inhibition at 50 µM,RAW264.7 [1],0.2%
same,IC50,RAW264.7 [2],3.52 µM
COc1cc(OC)c2c(c1)C(=O)CC2c1ccc(Br)cc1 (stereo not given),inhibition at 50 µM,RAW264.7 [1],-88.5%
COc1cc(OC)c2c(c1)C(=O)CC2c1ccc(OC(F)(F)F)cc1 (stereo not given),inhibition at 50 µM,RAW264.7 [1],4.4%
COc1cc(OC)c2c(c1)C(=O)CC2c1ccc(OC(C)(F)F)cc1 (stereo not given),inhibition at 50 µM,RAW264.7 [1],76.5%
same,IC50,RAW264.7 [2],4.51 µM
COc1cc(OC)c2c(c1)C(=O)CC2c1ccc(C)cc1 (stereo not given),inhibition at 50 µM,RAW264.7 [1],49.9%
same,IC50,RAW264.7 [2],48.3 µM
COc1ccc([C@@H]2CC(=O)c3cc(OC)cc(OC)c32)cc1,IC50,RAW264.7 [2],> 50 µM
COc1cc(OC)c2c(c1)C(=O)CC2c1ccc2cc(OC)ccc2c1 (stereo not given),inhibition at 50 µM,RAW264.7 [1],4.6%
same,IC50,RAW264.7 [2],51.5 µM
COc1cc(OC)c2c(c1)C(=O)CC2c1csc2ccccc12 (stereo not given),inhibition at 50 µM,RAW264.7 [1],5.9%
Nc1ccc(O)c(C(=O)O)c1 [MESALAMINE],Activity,Mus musculus [3],44.3%
same,Activity,Mus musculus [4],Dde
same,Activity,Mus musculus [5],39.4%
same,Activity,Mus musculus [6],27.5%
same,Activity,Mus musculus [7],30.1%
same,Activity,Mus musculus [8],46%
same,Activity,Mus musculus [9],38.3%
same,Activity,Mus musculus [10],25%
same,Activity,Mus musculus [11],36.9%
same,Activity,Mus musculus [12],43.2%
same,Activity,Mus musculus [13],38.3%
same,Activity,Mus musculus [14],3
same,Activity,Mus musculus [15],54.7%
same,Activity,Mus musculus [16],46.3%
same,Activity,Mus musculus [17],44%
same,Activity,Mus musculus [18],42.2%
same,Activity,Mus musculus [19],55.7%
same,Activity,Mus musculus [20],54.9%
same,Activity,Mus musculus [21],47.3%
same,Activity,Mus musculus [22],53.5%
same,Activity,Mus musculus [23],48.7%
same,Activity,Mus musculus [24],Active
same,Activity,Mus musculus [25],32.4%

# Reference: ChEMBL document CHEMBL5154881, “Discovery of First-in-Class TAK1-MKK3 Protein-Protein Interaction (PPI) Inhibitor (R)-STU104 for the Treatment of Ulcerative Colitis through Modulating TNF-α Production” (J Med Chem, 2022)
